Assay results from ChEMBL document CHEMBL2407021, “Unveiling the mode of action of antibacterial labdane diterpenes from Alpinia nigra (Gaertn.) B. L. Burtt seeds” (2013).
Values after ≈ are worked out from the molar mass of the structure shown. Active and inactive are the calls of the source. No cut-off for these calls is given here.

Key:
Staphylococcus aureus [1] = test: Induction of cell lysis in Staphylococcus aureus ATCC 6538 assessed as membrane disintegration and damage of cell wall at MIC by field emission scanning electron microscopy analysis; assay type: functional, organism-based
Staphylococcus aureus [2] = test: Induction of cell damage in Staphylococcus aureus ATCC 6538 assessed as increase in fluorescence intensity at MIC after 12 hrs using propidium iodide staining by flow cytometry analysis; assay type: functional
Yersinia enterocolitica [3] = test: Antibacterial activity against Yersinia enterocolitica MTCC 859 after 24 hrs; assay type: functional; conditions: MTCC 859, 24 h
Salmonella paratyphi [4] = test: Antibacterial activity against Salmonella paratyphi A MTCC 735 after 24 hrs; assay type: functional, Salmonella enterica subsp. enterica serovar Paratyphi A; conditions: Salmonella enterica, MTCC 735, 24 h
Listeria monocytogenes [5] = test: Induction of cell damage in Listeria monocytogenes ATCC 19115 assessed as increase in fluorescence intensity at MIC after 12 hrs using propidium iodide staining by flow cytometry analysis; assay type: functional
Bacillus cereus [6] = test: Induction of cell damage in Bacillus cereus ATCC 11778 assessed as increase in fluorescence intensity at MIC after 12 hrs using propidium iodide staining by flow cytometry analysis; assay type: functional
Yersinia enterocolitica [7] = test: Induction of cell damage in Yersinia enterocolitica MTCC 859 assessed as increase in fluorescence intensity at MIC after 12 hrs using propidium iodide staining by flow cytometry analysis; assay type: functional
Listeria monocytogenes [8] = test: Antibacterial activity against Listeria monocytogenes ATCC 19115 after 24 hrs; assay type: functional; conditions: ATCC 19115, 24 h
Escherichia coli [9] = test: Antibacterial activity against Escherichia coli ATCC 25922 after 24 hrs; assay type: functional; conditions: ATCC 25922, 24 h
Escherichia coli [10] = test: Antibacterial activity against enterotoxic Escherichia coli MTCC 723 after 18 hrs by microdilution method; assay type: functional; conditions: MTCC 723, 18 h
Bacillus cereus [11] = test: Antibacterial activity against Bacillus cereus ATCC 11778 after 24 hrs; assay type: functional; conditions: ATCC 11778, 24 h
Escherichia coli [12] = test: Antibacterial activity against Escherichia coli ATCC 25922 after 18 hrs by microdilution method; assay type: functional; conditions: ATCC 25922, 18 h
Escherichia coli [13] = test: Induction of cell damage in enterotoxic Escherichia coli MTCC 723 assessed as increase in fluorescence intensity at MIC after 12 hrs using propidium iodide staining by flow cytometry analysis; assay type: functional
Staphylococcus aureus [14] = test: Induction of cell leakage in Staphylococcus aureus ATCC 6538 assessed as release of cellular materials at MIC after 8 to 16 hrs by UV/VIS spectrophotometer analysis; assay type: functional, organism-based
Escherichia coli [15] = test: Induction of cell damage in Escherichia coli ATCC 25922 assessed as increase in fluorescence intensity at MIC after 12 hrs using propidium iodide staining by flow cytometry analysis; assay type: functional
Yersinia enterocolitica [16] = test: Induction of cell leakage in Yersinia enterocolitica MTCC 859 assessed as release of cellular materials at MIC after 8 to 16 hrs by UV/VIS spectrophotometer analysis; assay type: functional, organism-based
Staphylococcus aureus [17] = test: Antibacterial activity against Staphylococcus aureus ATCC 6538 after 18 hrs by microdilution method; assay type: functional; conditions: ATCC 6538, 18 h
Listeria monocytogenes [18] = test: Antibacterial activity against Listeria monocytogenes ATCC 19115 after 18 hrs by microdilution method; assay type: functional; conditions: ATCC 19115, 18 h
Yersinia enterocolitica [19] = test: Induction of cell lysis in Yersinia enterocolitica MTCC 859 assessed as cell membrane damage at MIC by field emission scanning electron microscopy analysis; assay type: functional, organism-based
Escherichia coli [20] = test: Antibacterial activity against enterotoxic Escherichia coli MTCC 723 after 24 hrs; assay type: functional; conditions: MTCC 723, 24 h
Staphylococcus aureus [21] = test: Antibacterial activity against Staphylococcus aureus ATCC 6538 after 24 hrs; assay type: functional; conditions: ATCC 6538, 24 h
Yersinia enterocolitica [22] = test: Antibacterial activity against Yersinia enterocolitica MTCC 859 after 18 hrs by microdilution method; assay type: functional; conditions: MTCC 859, 18 h
Bacillus cereus [23] = test: Antibacterial activity against Bacillus cereus ATCC 11778 after 18 hrs by microdilution method; assay type: functional; conditions: ATCC 11778, 18 h
Salmonella paratyphi [24] = test: Induction of cell damage in Salmonella paratyphi A MTCC 735 assessed as increase in fluorescence intensity at MIC after 12 hrs using propidium iodide staining by flow cytometry analysis; assay type: functional, Salmonella enterica subsp. enterica serovar Paratyphi A
Salmonella paratyphi [25] = test: Antibacterial activity against Salmonella paratyphi A MTCC 735 after 18 hrs by microdilution method; assay type: functional, Salmonella enterica subsp. enterica serovar Paratyphi A; conditions: Salmonella enterica, MTCC 735, 18 h

| SMILES | Activity (Staphylococcus aureus [1]) | RFU (Staphylococcus aureus [2]) | MBC (Yersinia enterocolitica [3]) [µg/mL] | MBC (Salmonella paratyphi [4]) [µg/mL] | RFU (Listeria monocytogenes [5]) | RFU (Bacillus cereus [6]) | RFU (Yersinia enterocolitica [7]) | MBC (Listeria monocytogenes [8]) [µg/mL] | MBC (Escherichia coli [9]) [µg/mL] | MIC (Escherichia coli [10]) [µg/mL] | MBC (Bacillus cereus [11]) [µg/mL] | MIC (Escherichia coli [12]) [µg/mL] | RFU (Escherichia coli [13]) | Activity (Staphylococcus aureus [14]) | RFU (Escherichia coli [15]) | Activity (Yersinia enterocolitica [16]) | MIC (Staphylococcus aureus [17]) [µg/mL] | MIC (Listeria monocytogenes [18]) [µg/mL] | Activity (Yersinia enterocolitica [19]) | MBC (Escherichia coli [20]) [µg/mL] | other results |
| --- | --- | --- | --- | --- | --- | --- | --- | --- | --- | --- | --- | --- | --- | --- | --- | --- | --- | --- | --- | --- | --- |
| C=C1CC[C@H]2C(C)(C)CCC[C@]2(C)[C@H]1C/C=C(/C=O)CC=O | Active | 114 | 25 (≈ 82.7 µM) | 12.5 (≈ 41.3 µM) | 70.9 | 117 | 80.7 | 25 (≈ 82.7 µM) | 50 (≈ 165 µM) | 25 (≈ 82.7 µM) | 12.5 (≈ 41.3 µM) | 25 (≈ 82.7 µM) | 139 | Active | 146 | Active | 12.5 (≈ 41.3 µM) | 25 (≈ 82.7 µM) | Active | 25 (≈ 82.7 µM) | MBC (Staphylococcus aureus [21]): 25 µg/mL (≈ 82.7 µM); MIC (Yersinia enterocolitica [22]): 12.5 µg/mL (≈ 41.3 µM); MIC (Bacillus cereus [23]): 12.5 µg/mL (≈ 41.3 µM); RFU (Salmonella paratyphi [24]): 78.5; MIC (Salmonella paratyphi [25]): 12.5 µg/mL (≈ 41.3 µM) |
| CC1(C)CCC[C@@]2(C)[C@H]1CC[C@@]1(CO1)[C@@H]2C/C=C(/C=O)CC=O [AFRAMODIAL] | Active | 119 | 3.38 (≈ 10.6 µM) | 12.5 (≈ 39.3 µM) | 89.9 | 118 | 117 | 12.5 (≈ 39.3 µM) | 12.5 (≈ 39.3 µM) | 6.75 (≈ 21.2 µM) | 6.75 (≈ 21.2 µM) | 12.5 (≈ 39.3 µM) | 153 | Active | 187 | Active | 3.38 (≈ 10.6 µM) | 12.5 (≈ 39.3 µM) | Active | 6.75 (≈ 21.2 µM) | MBC (Staphylococcus aureus [21]): 6.75 µg/mL (≈ 21.2 µM); MIC (Yersinia enterocolitica [22]): 3.38 µg/mL (≈ 10.6 µM); MIC (Bacillus cereus [23]): 6.75 µg/mL (≈ 21.2 µM); RFU (Salmonella paratyphi [24]): 87.6; MIC (Salmonella paratyphi [25]): 6.75 µg/mL (≈ 21.2 µM) |
